Several values for one entry are separate records, joined by “and”; a condition that tells them apart may be missing. Identical values can stand only once. Like-named read-outs stand apart in the source and are kept apart here.
Legend:
[1] = system: CA19-9 (carbohydrate antigen 19-9); test: Clinical trial: serum level of CA19-9; assay type: in vivo, human; details: for CA19-9 Serum levels: individual patients, ODSH adjunctive to gemcitabine and nab-paclitaxel
Procedure: Treatment consisted of a series of 28-day cycles, wherein the last day of one cycle (e.g., day 28, cycle 1) was immediately followed by the first day of the next cycle (e.g., day 1, cycle 2). In each 28-day treatment cycle, patients were dosed at days 1, 8, and 15 (three weeks of medication followed by one week of rest) as follows. First, nab-paclitaxel at 125 mg/m^2 was administered as an intravenous infusion over 30 minutes. […] Nab-paclitaxel and gemcitabine therapy was given as described in the prescribing information for Abraxane® and Gemzar®. See also, Von Hoff et al., 2011, J. Clinical Oncology 29:1-7). […]
Blood samples were also tested on day 1 of each treatment cycle for the serum level of CA19-9 (carbohydrate antigen 19-9) a marker used to assess the efficacy of the chemotherapy agents in treating pancreatic cancer. See. e.g., Maeda, 2011, Int. J. Clin. Oncol. 16(5):539-45. Reduction in the serum level of CA19-9 is indicative of chemotherapeutic efficacy against the pancreatic cancer. Tumor response and disease status was measured according to Response Evaluation Criteria in Solid Tumors (RECIST) Guidelines Version 1.1. Eur. J. Cancer, 2009, 45:228-247. A reduction of at least 30% in the sum of the diameters of target lesions (measurable lesions present at screening, up to 2 lesions per involved organ) was scored as a partial response. Patients were scored as having stable disease where the smallest sum of target lesion diameters neither decreased nor increased sufficiently to qualify as a partial response or progressive disease.

[2] = assay type: in vivo, human; details: ODSH adjunct to gemcitabine/nab-paclitaxel
Procedure: Patients were also assessed for other side effects of chemotherapy, including fatigue, sensory neuropathy, nausea, and vomiting, each of which was graded according to severity. Grades were: 0 (normal), 1 (mild), 2 (moderate), 3 (severe) and 4 (life-threatening).

neutrophils = test: Clinical trial, metastatic pancreatic cancer: absolute neutrophil count / neutropenia grade; assay type: in vivo, human; parameters: Neutrophil count: unit not given here; details: for Neutrophil Values / Neutrophil count: individual patients; for Neutrophil Values: ODSH adjunctive to gemcitabine and nab-paclitaxel; for Neutrophil count: randomized stage
Excerpt: Male and non-pregnant, non-lactating, female patients, aged 18 to 75, with histologically confirmed metastatic adenocarcinoma of the pancreas were enrolled in the trial. […] Treatment consisted of a series of 28-day cycles, wherein the last day of one cycle (e.g., day 28, cycle 1) was immediately followed by the first day of the next cycle (e.g., day 1, cycle 2). […] Nab-paclitaxel and gemcitabine therapy was given as described in the prescribing information for Abraxane® and Gemzar®. See also, Von Hoff et al., 2011, J. […] As a substantially non-anticoagulant heparinoid, ODSH can be administered at a dose that is greater than the fully anticoagulant dose of unfractionated heparin, without concern for anticoagulant effect, as shown in the Results below. An initial run-in period was conducted in which ten patients were treated with the gemcitabine, nab-paclitaxel, and ODSH regimen described above. After all ten patients had completed at least one 28-day cycle, the data were reviewed and an open-label randomized study initiated, with two arms (ODSH arm and Control arm). In the ODSH arm, the dosing regimen was the same as in the run-in period (gemcitabine, nab-paclitaxel, and ODSH). In the Control arm, patients were given the same gemcitabine and nab-paclitaxel regimen as in the run-in period, but without ODSH. […] Platelet counts, total white blood cell counts, and absolute neutrophil counts were performed. Grading of thrombocytopenia and/or neutropenia was performed according to the following standards: [table]

[3] = for Deaths: N = 10 per group
Procedure: All experiments were conducted on female athymic nude mice (Hsd:Athymic Nude-Foxn1nu) supplied by Harlan (Indianapolis, Ind.). Mice were received at four weeks of age, 12-15 grams in weight, and were acclimated for seven days prior to handling. The mice were housed in microisolator cages (Lab Products, Seaford, Del.) and maintained under specific pathogen-free conditions. All procedures were carried out under appropriate institutional guidelines for animal care.
Seven days following inoculation, tumors were measured using calipers and tumor weight was calculated using the animal study management software. […] Body weights were recorded when the mice were randomized and were taken twice weekly thereafter in conjunction with tumor measurements, on each of Days 1, 4, 8, 11, 15, 18, 22, 26, 30, 33, and 36.
The study was terminated when the vehicle control reached an endpoint of 1500 mg, on Day 36.

[4] = ODSH adjunct to gemcitabine/nab-paclitaxel
[5] = Table 13, first column group, headed Day 22
[6] = Table 13, second column group, headed Day 26
[7] = ten mice per group, BxPC-3 xenograft study

substantially 2-O, 3-O desulfated heparin [ODSH]
Patients in whom serum CA19-9 level decreased [1, 4]: 8 of 10 | CA19-9 Serum levels ([1]; Cycle 1 Day 1): 395 U/mL and 70,086 U/mL and 2,138 U/mL and 483 U/mL and 11 U/mL and 326 U/mL and 4,775 U/mL and 125 U/mL and 6,186 U/mL and 6,275 U/mL | CA19-9 Serum levels ([1]; Cycle 2 Day 1): 490 U/mL and 22,958 U/mL and 502 U/mL and 453 U/mL and 17 U/mL and 710 U/mL and 5,934 U/mL and 71 U/mL and 4,392 U/mL and 4,018 U/mL | CA19-9 Serum levels ([1]; Cycle 3 Day 1): 251 U/mL and 10,286 U/mL and 328 U/mL and 205 U/mL and 15 U/mL and 164 U/mL and 8,529 U/mL and 27 U/mL and 2,669 U/mL and 1,433 U/mL | CA19-9 Serum levels ([1]; Cycle 4 Day 1): 108 U/mL and 288 U/mL and 110 U/mL and 20 U/mL and 69 U/mL and 9,926 U/mL and 15 U/mL and 2405 U/mL and 348 U/mL | Patients experiencing no more than Grade 1 side effects (fatigue, sensory neuropathy, nausea, vomiting) [2]: more than 50% | Patients with increased or unchanged neutrophil counts on first day of second cycle vs first day of first cycle (neutrophils; [4]): Five out of 10 | Patients with normal neutrophil counts at the start of the fourth cycle (neutrophils; [4]): 10 out of 10 | Patients with normal neutrophil counts at the start of the third cycle (neutrophils; [4]): 8 out of 9 | Patients with normal neutrophil counts on the first day of the second treatment cycle (neutrophils; [4]): Eight out of 10 | Mean and median absolute neutrophil counts on the first day of treatment cycles 2 and 3 (neutrophils; all samples (FIG. 10B), ODSH adjunct to gemcitabine/nab-paclitaxel): above 2,000 | Patients with no more than mild neutropenia after two doses of treatment (neutrophils; day 15, first cycle, ODSH adjunct to gemcitabine/nab-paclitaxel): 44% | Patients with no more than mild neutropenia after five or eight doses of treatment (neutrophils; day 15 of cycle 2 or day 15 of cycle 3, ODSH adjunct to gemcitabine/nab-paclitaxel): 7 out of 10 | Neutrophil Values (neutrophils; Cycle 1 Day 1 (before treatment)): 4.3 ×10^3/μl blood (2×) and 3.6 ×10^3/μl blood (2×) and 5.5 ×10^3/μl blood and 2.1 ×10^3/μl blood and 3.3 ×10^3/μl blood | Neutrophil Values (neutrophils; Cycle 1 Day 8): 1.3 ×10^3/μl blood and 2.1 ×10^3/μl blood and 4.3 ×10^3/μl blood and 0.5 ×10^3/μl blood and 3.0 ×10^3/μl blood and 1.5 ×10^3/μl blood | Neutrophil Values (neutrophils; Cycle 1 Day 15): 0.7 ×10^3/μl blood (2×) and 1.6 ×10^3/μl blood and 3.6 ×10^3/μl blood and 3.5 ×10^3/μl blood and 1.0 ×10^3/μl blood | Neutrophil Values (neutrophils; Cycle 2 Day 1): 7.3 ×10^3/μl blood and 1.6 ×10^3/μl blood and 4.6 ×10^3/μl blood and 13.0 ×10^3/μl blood and 2.1 ×10^3/μl blood and 6.0 ×10^3/μl blood and 3.6 ×10^3/μl blood | Neutrophil Values (neutrophils; Cycle 2 Day 8): 3.8 ×10^3/μl blood and 2.6 ×10^3/μl blood and 3.7 ×10^3/μl blood (2×) and 6.3 ×10^3/μl blood and 1.3 ×10^3/μl blood and 1.9 ×10^3/μl blood | Neutrophil Values (neutrophils; Cycle 2 Day 15): 1.8 ×10^3/μl blood and 1.7 ×10^3/μl blood and 3.8 ×10^3/μl blood and 0.7 ×10^3/μl blood and 1.5 ×10^3/μl blood and 1.1 ×10^3/μl blood and 1.0 ×10^3/μl blood | Neutrophil Values (neutrophils; Cycle 3 Day 1): 2.7 ×10^3/μl blood and 2.8 ×10^3/μl blood and 2.2 ×10^3/μl blood and 3.9 ×10^3/μl blood and 1.8 ×10^3/μl blood and 3.2 ×10^3/μl blood | Neutrophil Values (neutrophils; Cycle 3 Day 8): 1.6 ×10^3/μl blood and 4.2 ×10^3/μl blood and 6.8 ×10^3/μl blood and 3.9 ×10^3/μl blood and 1.4 ×10^3/μl blood (2×) | Neutrophil Values (neutrophils; Cycle 3 Day 15): 1.5 ×10^3/μl blood (2×) and 1.8 ×10^3/μl blood and 4.5 ×10^3/μl blood and 1.4 ×10^3/μl blood and 0.8 ×10^3/μl blood and 2.6 ×10^3/μl blood | Neutrophil Values (neutrophils; Cycle 4 Day 1): 2.2 ×10^3/μl blood and 5.2 ×10^3/μl blood and 5.7 ×10^3/μl blood and 5.9 ×10^3/μl blood and 3.5 ×10^3/μl blood and 3.2 ×10^3/μl blood and 2.7 ×10^3/μl blood | Neutrophil Values (neutrophils; Cycle 4 Day 8): 2.5 ×10^3/μl blood and 2.7 ×10^3/μl blood and 2.2 ×10^3/μl blood and 2.0 ×10^3/μl blood and 1.4 ×10^3/μl blood | Neutrophil Values (neutrophils; Cycle 4 Day 15): 4.6 ×10^3/μl blood and 2.4 ×10^3/μl blood and 3.4 ×10^3/μl blood and 0.7 ×10^3/μl blood and 1.7 ×10^3/μl blood | Neutrophil Values (neutrophils; Cycle 5 Day 1): 1.6 ×10^3/μl blood and 3.2 ×10^3/μl blood and 3.3 ×10^3/μl blood and 23.2 ×10^3/μl blood | Neutrophil Values (neutrophils; Cycle 5 Day 8): 2.1 ×10^3/μl blood and 3.4 ×10^3/μl blood and 1.6 ×10^3/μl blood and 4.1 ×10^3/μl blood | Neutrophil Values (neutrophils; Cycle 5 Day 15): 0.8 ×10^3/μl blood and 3.9 ×10^3/μl blood and 1.1 ×10^3/μl blood | Neutrophil Values (neutrophils; Cycle 6 Day 1): 13.5 ×10^3/μl blood and 2.3 ×10^3/μl blood | Neutrophil Values (neutrophils; Cycle 6 Day 8): 1.3 ×10^3/μl blood and 1.2 ×10^3/μl blood | Neutrophil Values (neutrophils; Cycle 6 Day 15): 1.7 ×10^3/μl blood and 10.7 ×10^3/μl blood | Neutrophil Values (neutrophils; Screen): 5.6 ×10^3/μl blood and 5.9 ×10^3/μl blood and 4.0 ×10^3/μl blood (2×) and 5.3 ×10^3/μl blood and 4.3 ×10^3/μl blood and 9.3 ×10^3/μl blood | Neutrophil count (neutrophils; Cycle 1 Day 15): 2.4 and 1.4 and 4.0 (2×) and 0.8 and 4.7 and 3.0 and 0.3 | Neutrophil count (neutrophils; Cycle 2 Day 15): 1.8 (2×) and 1.6 and 0.8 and 3.7 (2×) | Neutrophil count (neutrophils; Cycle 3 Day 15): 1.0 and 1.6 and 0.8 and 5.4 | Neutrophil count (neutrophils; Cycle 4 Day 15): 4.8 and 4.1 | Day by which the mice recovered their weight ([3]; BxPC-3 xenograft study): ≤ 22 days | Day on which maximum weight loss was reached ([3]; BxPC-3 xenograft study): 11 days | Tolerability / toxicity of the treatment regimen (in words) ([3]; BxPC-3 xenograft study, doses of Table 1): well-tolerated | Average Weight ([3]; Day 1): 21.54 g | % Weight Loss or Gain ([3]; Day 4): −1.67% | Average Weight ([3]; Day 4): 21.18 g | % Weight Loss or Gain ([3]; Day 8): −1.67% | Average Weight ([3]; Day 8): 21.18 g | % Weight Loss or Gain ([3]; Day 11): −2.74% | Average Weight ([3]; Day 11): 20.95 g | % Weight Loss or Gain ([3]; Day 15): −2.14% | Average Weight ([3]; Day 15): 21.08 g | % Weight Loss or Gain ([3]; Day 18): −2.32% | Average Weight ([3]; Day 18): 21.04 g | % Weight Loss or Gain ([3]; Day 22 (Table 12)): 0.09% | Average Weight ([3]; Day 22 (Table 12)): 21.56 g | % Weight Loss or Gain ([3]; Day 26 (Table 12)): 2.79% | Average Weight ([3]; Day 26 (Table 12)): 22.14 g | % Weight Loss or Gain [3, 5]: 4.60% | Average Weight [3, 5]: 22.53 g | % Weight Loss or Gain [3, 6]: 4.27% | Average Weight [3, 6]: 22.46 g | Deaths ([3]; Total deaths on or before Day 26): 0 | Deaths ([3]; Total deaths on or before Day 36): 0 | Maximum weight loss ([3]; body weight of mice, BxPC-3 xenograft study): 2.7% | Starting Weight ([3]; group mean body weight at start, dose, schedule and route per group as in table): 21.54 g | % Weight Loss or Gain ([3]; mouse, in vivo): 4.92% | Average Weight ([3]; mouse, in vivo): 22.60 g | Mice with bruising on the tails or abdomen (site of injection) [3, 7]: All ten | Mice with swelling of the tail [3, 7]: One of the ten
